Literature values in US6423864B1, “Purification of N-[N-(3,3-dimethylbutyl)-L-α-aspartyl]-L-phenylalanine 1-methyl ester via crystallization” (The NutraSweet Company, priority 1998, dated 2002).

Details: relative to sucrose; background statement

For `COC(=O)[C@H](Cc1ccccc1)NC(=O)[C@H](CC(=O)O)NCCC(C)(C)C` [neotame, N-[N-(3,3-dimethylbutyl)-L-α-aspartyl]-L-phenylalanine 1-methyl ester], the “sweetness potency (sweeter than sucrose)” value is given as “about 8000 ×”.
